Experimental data from patent publication US11834466B2, “Benzoxaborole compounds and formulations thereof” (5Metis, Inc., priority 2017, dated 2023).

What was measured:
Type in all cases: in vivo
[1] = test system: wheat/SNB (Parastangaspora nodorum); assay: Greenhouse biological efficacy on wheat/SNB; conditions: BAG8 0.25 lb/acre at 20 gal/acre, inoculum 24 hours post spray, Example 26, Table 16, untreated control 6.750
Method: (§1) The BAG8 SC formulations described in Example 10 (BAG8 20% SC) and Example 12 (BAG8 40% SC) and selected BAG8 SC-tank mix formulations described in Example 23 were tested under greenhouse conditions. Data was obtained for soybean/white mold (Sclerotinia sclerotiorum), wheat/SNB (Parastangaspora nodorum), and cucubit/downy mildew. For each experiment, the BAG8 was applied at a rate of 0.25 lb/acre and at a spray rate of 20 gal/acre. Various BAG8 EC formulations, the BAG8 WP formulation described in Example 18, and selected BAG8 SC-tank mix formulations described in Example 23 were tested under greenhouse conditions. Data was obtained for soybean/white mold (Sclerotinia sclerotiorum), wheat/SNB (Parastangaspora nodorum), and cucurbit/downy mildew. For each experiment, the BAG8 was applied at a rate of 0.25 lb/acre at a spray rate of 20 gal/acre (40 mL of spray solution prepared). All inoculum was applied 24 hours post BAG8 spray. Unformulated BAG8 was applied to the plants by dissolving BAG8 in a 30% acetone-70% water solution.

[2] = test system: soybean/white mold (Sclerotinia sclerotiorum); assay: Greenhouse biological efficacy on soybean/white mold; conditions: BAG8 0.25 lb/acre at 20 gal/acre, inoculum 24 hours post spray, Example 29, Table 19, untreated control 7.333
Method: as §1

[3] = test system: cucurbit/downy mildew; assay: Greenhouse biological efficacy on cucurbit/downy mildew; conditions: BAG8 0.25 lb/acre at 20 gal/acre, inoculum 24 hours post spray
Method: as §1

## OB1OCc2cc(Cl)ccc21 [BAG8, 5-chlorobenzo[c][1,2]oxaborol-1(3H)-ol]
[1]
  Mean Disease Severity: 5.750
[2]
  Mean Disease Severity: 5.333
[3]; Cucumber/Downy Mildew, Example 29, Table 20, untreated control 7.417
  Mean Disease Severity: 5.833
[3]; Curcurbit/Downy Mildew, Example 27, Table 17, untreated control 8.364
  Mean Disease Severity: 2.000
[3]; Curcurbit/Downy Mildew, Example 28, Table 18, untreated control 6.667
  Mean Disease Severity: 5.833
